Test results: paper PMC8910387, “Systematic Comparison of Beetle Luciferase-Luciferin Pairs as Sources of Near-Infrared Light for In Vitro and In Vivo Applications” (International Journal of Molecular Sciences, 2022)

Assays:
Test in all cases: bioluminescence peak-height (V0) kinetics
Luc2 [1] = target: T1, Luc2 (Photinus pyralis, UniProt P08659); type: biochemical; conditions: Mg-ATP, O2; assay details in supplement; read-out: Km (μM) ^4
T1 construct: mammalian codon optimized P. pyralis Luc; pGEX-6P-2, E. coli BL21(DE3)pLysS, GST removed, N-terminal GlyProLeuGlySer kept; Mut51 from pET28a (His-tag)
T1 sequence (P08659 whole entry): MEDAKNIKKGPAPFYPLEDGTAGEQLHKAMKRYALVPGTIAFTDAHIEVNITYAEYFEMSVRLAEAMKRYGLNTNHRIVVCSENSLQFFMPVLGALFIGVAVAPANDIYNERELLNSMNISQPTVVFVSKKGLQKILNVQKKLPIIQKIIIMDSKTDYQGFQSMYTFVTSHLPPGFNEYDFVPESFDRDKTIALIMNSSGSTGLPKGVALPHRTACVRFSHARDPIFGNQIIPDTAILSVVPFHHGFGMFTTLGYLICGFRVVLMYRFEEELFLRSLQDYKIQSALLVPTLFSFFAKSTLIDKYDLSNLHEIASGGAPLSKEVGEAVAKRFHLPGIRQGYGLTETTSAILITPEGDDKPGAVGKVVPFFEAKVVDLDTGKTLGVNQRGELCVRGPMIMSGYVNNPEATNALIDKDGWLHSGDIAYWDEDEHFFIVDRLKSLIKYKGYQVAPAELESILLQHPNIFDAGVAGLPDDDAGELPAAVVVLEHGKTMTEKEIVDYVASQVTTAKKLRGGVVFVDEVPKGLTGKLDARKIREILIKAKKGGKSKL
Source text: (§1) bioluminescence peak-height (V0) kinetics on Luc2

PLR3 = tested on: T2, PLR3; type: biochemical, Photinus pyralis / Luciola italica; conditions: Mg-ATP, O2; assay details in supplement; read-out: Km (μM) ^4
T2 construct: G246A/F250H in mammalian codon optimized PLR1; pGEX-6P-2, N-terminal GlyProLeuGlySer kept
Source text: bioluminescence peak-height (V0) kinetics on PLR3

[2] = tested on: T3, CBR (tested as CBR2, CBR2opt); type: biochemical; conditions: Mg-ATP, O2; assay details in supplement; read-out: Km (μM) ^4
T3 construct: mouse codon optimized; pGEX-6P-2, E. coli BL21(DE3)pLysS, GST removed, N-terminal GlyProLeuGlySer kept
Source text: bioluminescence peak-height (V0) kinetics on CBR (tested as CBR2, CBR2opt)

Luc2 [3] = target: T4, Luc2 (Photinus pyralis, UniProt P08659, F243M/S347G, form not given); type: biochemical; conditions: Mg-ATP, O2; assay details in supplement; Mut51, His-tagged; read-out: Km (μM) ^4
T4 construct: mammalian codon optimized P. pyralis Luc; pGEX-6P-2, E. coli BL21(DE3)pLysS, GST removed, N-terminal GlyProLeuGlySer kept; Mut51 from pET28a (His-tag)
T4 sequence (P08659 whole entry F243M/S347G, form open): as the sequence (P08659 whole entry) above, with F243M, S347G counted along it
Source text: as §1

Fluc_red = target: T5, Fluc_red (Photinus pyralis, UniProt P08659, S284T/E354R/D357Y, form not given); type: biochemical; conditions: Mg-ATP, O2; assay details in supplement; read-out: Km (μM) ^4
T5 construct: pET16b, His-tag
T5 sequence (P08659 whole entry S284T/E354R/D357Y, form open): as the sequence (P08659 whole entry) above, with S284T, E354R, D357Y counted along it
Source text: bioluminescence peak-height (V0) kinetics on Fluc_red

SMILES | Km (Luc2 [1]) [µM] | Km [2] [µM] | other results
Nc1cnc2c(ccc3nc(C4=N[C@@H](C(=O)O)CS4)sc32)c1 [NH2-QLH2] | 1.5 ± 0.2 | – | –
Nc1ccc2nc(C3=N[C@@H](C(=O)O)CS3)sc2c1 [NH2-LH2, (S)-2-(6-aminobenzo[d]thiazol-2-yl)-4,5-dihydrothiazole-4-carboxylic acid] | – | 9.5 ± 1.3 | –
O=C(O)[C@H]1CSC(c2nc3c(Br)cc(O)cc3s2)=N1 [4′-BrLuc, (S)-2-(4-bromo-6-hydroxybenzo[d]thiazol-2-yl)-4,5-dihydrothiazole-4-carboxylic acid] | 44 ± 11 | – | Km (Luc2 [3]): 2.3 ± 0.2 µM
O=C(O)[C@H]1CSC(c2nc3cc4c(cc3s2)NCC4)=N1 [CycLuc1, (S)-2-(6,7-dihydro-5H-thiazolo[4,5-f]indol-2-yl)-4,5-dihydrothiazole-4-carboxylic acid] | 0.61 ± 0.2 | – | –
O=C(O)[C@H]1CSC(c2nc3ccc(O)cc3s2)=N1 [LH2, (S)-2-(6-hydroxybenzo[d]thiazol-2-yl)-4,5-dihydrothiazole-4-carboxylic acid] | – | 250 ± 24 | –
Nc1ccc2c(ccc3nc(C4=N[C@@H](C(=O)O)CS4)sc32)c1 [NH2-NpLH2] | 3.3 ± 0.6 | 0.8 ± 0.1 | –

The next lines start with results.

Km (Luc2 [1]) [µM] | Km [2] [µM] | SMILES | other results
1.8 ± 0.6 | – | O=C(O)[C@H]1CSC(c2nc3ccc4cc(O)cnc4c3s2)=N1 [OH-QLH2] | Km (PLR3): 1.6 ± 0.1 µM
– | 0.93 ± 0.13 | O=C(O)[C@H]1CSC(c2nc3ccc4cc(O)ccc4c3s2)=N1 [OH-NpLH2] | –
0.13 ± 0.05 | 0.9 ± 0.08 | O=C(O)[C@H]1CSC(/C=C/c2nc3ccc(O)cc3s2)=N1 [iLH2, (S,E)-2-(2-(6-hydroxybenzo[d]thiazol-2-yl)vinyl)-4,5-dihydrothiazole-4-carboxylic acid] | Km (Fluc_red): 0.17 ± 0.05 µM
